Experimental data published in ChEMBL document CHEMBL1201862, “PubChem BioAssay data set” (2004).
Active and inactive are the calls of the source.

Assays:
Large T antigen = Large T antigen (Simian virus 40, UniProt P03070); assay type: functional, Betapolyomavirus macacae;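 also: Confirmatory-stage PubChem screen for compounds that inhibit SV40 T antigen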
[1] = target: T1, Carboxy-terminal domain RNA polymerase II polypeptide A small phosphatase 1 (Homo sapiens, UniProt Q9GZU7); assay: inhibitors of CTDSP1, concentration-response testing, biochemical assay, absorbance-based, actives from ultra-high-throughput screening (AID 540297); assay type: functional
T1 sequence (Q9GZU7 whole entry): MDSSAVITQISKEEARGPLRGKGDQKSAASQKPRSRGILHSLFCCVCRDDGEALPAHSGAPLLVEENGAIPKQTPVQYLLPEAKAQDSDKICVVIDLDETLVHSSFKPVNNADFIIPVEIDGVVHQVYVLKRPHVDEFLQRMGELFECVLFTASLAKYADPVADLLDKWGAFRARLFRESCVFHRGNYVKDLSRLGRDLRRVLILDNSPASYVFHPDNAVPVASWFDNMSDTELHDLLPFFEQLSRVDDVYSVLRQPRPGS

[2] = target: T2, Bifunctional protein GlmU (Mycobacterium tuberculosis, UniProt P9WMN3); assay: Inhibitors of Mycobacterial Glucosamine-1-phosphate acetyl transferase (GlmU). Secondary screen.; design: species or system Mycobacterium tuberculosis H37Rv
T2 sequence (P9WMN3 whole entry): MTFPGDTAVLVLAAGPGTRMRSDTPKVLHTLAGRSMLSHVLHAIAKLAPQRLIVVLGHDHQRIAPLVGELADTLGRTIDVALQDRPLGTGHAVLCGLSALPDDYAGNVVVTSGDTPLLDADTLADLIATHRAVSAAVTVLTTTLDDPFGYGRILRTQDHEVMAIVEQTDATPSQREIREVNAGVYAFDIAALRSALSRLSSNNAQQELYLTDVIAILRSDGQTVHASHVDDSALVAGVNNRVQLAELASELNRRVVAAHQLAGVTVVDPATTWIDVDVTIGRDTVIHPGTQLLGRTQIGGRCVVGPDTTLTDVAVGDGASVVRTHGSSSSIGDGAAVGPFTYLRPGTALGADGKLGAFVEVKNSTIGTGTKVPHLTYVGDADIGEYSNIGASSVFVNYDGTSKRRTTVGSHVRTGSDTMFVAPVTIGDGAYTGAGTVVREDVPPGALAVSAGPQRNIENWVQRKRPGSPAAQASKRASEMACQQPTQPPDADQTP

Genome polyprotein = Genome polyprotein (dengue virus type 2, UniProt P29990); assay: Dengue-2 NS5 methyltransferase inhibitors, primary screen, biochemical, confirmation dose response (AID 588689); assay type: functional
Ion channel NompC = Ion channel NompC (Danio rerio, UniProt Q7T1G6); assay: Fluorescence counterscreen assay for TRPML3 agonists: dose response cell-based high-throughput screening assay to identify agonists of the transient receptor potential channel N1 (TRPN1). [Related pubchem assays: 1526, 1424, 1448 ]; assay type: functional
Mucolipin-3 = target: T3, Mucolipin-3 (Homo sapiens, UniProt Q8TDD5); assay: Dose response cell-based high-throughput screening assay for agonists of the transient receptor potential channel ML3 (TRPML3). [Related pubchem assays: 1526, 1424, 1448 ]; assay type: functional
T3 sequence (Q8TDD5 whole entry): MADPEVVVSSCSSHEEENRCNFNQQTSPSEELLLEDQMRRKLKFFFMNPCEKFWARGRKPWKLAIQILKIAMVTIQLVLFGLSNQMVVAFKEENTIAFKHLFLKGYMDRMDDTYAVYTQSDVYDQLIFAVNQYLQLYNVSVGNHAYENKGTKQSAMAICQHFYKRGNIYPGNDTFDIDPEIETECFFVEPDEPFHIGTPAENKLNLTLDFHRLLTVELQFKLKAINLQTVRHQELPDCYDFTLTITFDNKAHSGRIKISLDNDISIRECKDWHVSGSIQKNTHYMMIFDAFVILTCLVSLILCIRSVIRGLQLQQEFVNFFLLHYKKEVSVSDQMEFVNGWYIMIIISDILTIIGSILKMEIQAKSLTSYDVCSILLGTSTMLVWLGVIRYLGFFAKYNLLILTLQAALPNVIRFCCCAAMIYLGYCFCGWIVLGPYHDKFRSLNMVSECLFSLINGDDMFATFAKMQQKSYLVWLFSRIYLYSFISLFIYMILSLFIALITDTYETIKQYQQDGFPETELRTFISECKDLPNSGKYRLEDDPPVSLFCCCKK

[3] = target: T4, Polyadenylate-binding protein 1 (Homo sapiens, UniProt P11940); assay: PABP inhibition in translation initiation, SAR follow-up (AID 435018); assay type: functional
[4] = target: Eukaryotic translation initiation factor 4H (Homo sapiens, UniProt Q15056); assay: eIF4H inhibition in translation initiation, SAR follow-up (AID 435011); assay type: functional
CHO = assay: cytotoxicity in TLR9-MyD88 CHO cells, dose response, cytotoxicity control for TLR9-MyD88 binding inhibitor project, cell-based, luminescence (AID 588339); assay type: functional, hamster; details: Cricetulus griseus;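 also: CHO cells stably coexpressing TLR9 and MyD88 fusions from primary screen; compound exposure lasted 48 hours before viability readout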
Fatty acid synthase [5] = target: T5, Fatty acid synthase (Homo sapiens, UniProt P49327); assay: FAS thioesterase domain inhibitors, dose response, biochemical, kinetic fluorescence intensity (AID 624326); assay type: functional;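 also: rate of fluorescence rise from hydrolysis of a fluorogenic O-methyl fluorescein ester substrate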
[6] = target: T4, Polyadenylate-binding protein 1; assay: PABP1 MLLE–PAM2 interaction inhibitors, dose response, miRNA deadenylation inhibitor project, biochemical, fluorescence polarization, Cy5-PAM2 peptide, secondary (AID 602260); assay type: functional; details: read-out: IC50_Mean
[7] = target: T4, Polyadenylate-binding protein 1; assay: PABP1 MLLE–PAM2 binding inhibitor potency, dose response, biochemical, fluorescence polarization, FITC-PAM2 peptide (AID 602259); assay type: functional; details: read-out: IC50_Mean
Beta Lactamase = Beta Lactamase (Pseudomonas aeruginosa, UniProt Q932Y6); assay: beta-lactamase reporter inhibitor potency, dose response, artefact control for TLR9-MyD88 binding inhibitor project, BLA reporter cells, FRET fluorescence (AID 588341); assay type: cell-based;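 also: cell based assay in CHO-K1 cells stably expressing beta-lactamase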
[8] = target: T6, Tyrosyl-DNA phosphodiesterase 2 (Homo sapiens, UniProt O95551); assay: human TDP2 enzyme inhibitors, dose response, biochemical, epi absorbance, IC50 (AID 743297)
T6 sequence (O95551 whole entry): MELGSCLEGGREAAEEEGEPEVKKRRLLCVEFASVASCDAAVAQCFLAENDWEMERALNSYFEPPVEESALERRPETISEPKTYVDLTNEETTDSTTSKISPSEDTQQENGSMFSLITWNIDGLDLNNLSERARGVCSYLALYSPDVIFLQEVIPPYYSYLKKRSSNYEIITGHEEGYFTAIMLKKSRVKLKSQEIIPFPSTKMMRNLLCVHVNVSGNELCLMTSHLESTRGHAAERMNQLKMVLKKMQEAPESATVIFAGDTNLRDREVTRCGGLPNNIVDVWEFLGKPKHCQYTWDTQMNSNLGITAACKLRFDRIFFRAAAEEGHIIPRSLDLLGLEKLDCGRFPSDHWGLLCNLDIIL

Vero = Vero cell cytotoxicity, cytotoxicity control for flavivirus capping enzyme inhibitors (AID 588742); assay type: functional; details: Chlorocebus sabaeus
[9] = non-specific cell cytotoxicity, dose response, cytotoxicity control for PAX8 inhibitor project, plate reader, dry powder samples (AID 743021); assay type: functional, cell-based
[10] = THP-1 cell cytotoxicity, dose response, cytotoxicity control for Vif-APOBEC3G degradation inhibitor project, THP-1 cells (AID 1117359); assay type: functional; details: Human immunodeficiency virus 1, THP-1
[11] = target: Heat shock protein HSP 90-alpha (Homo sapiens, UniProt P07900); assay type: functional, organism-based
Paired box protein Pax-8 = Paired box protein Pax-8 (Homo sapiens, UniProt Q06710); assay: inhibitors of PAX8-driven TPO luciferase reporter, dose response, RMG-I cells, cherry-pick (AID 687027); assay type: functional, cell-based;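 also: luciferase reporter driven by Pax8 target thyroperoxidase promoter measured by SteadyGlo luminescence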
Hexokinase HKDC1 = target: T7, Hexokinase HKDC1 (Homo sapiens, UniProt Q2TB90); assay: HKDC1 hexokinase inhibitors, dose response, biochemical, W721R variant (AID 504729); assay type: functional
T7 sequence (Q2TB90 whole entry): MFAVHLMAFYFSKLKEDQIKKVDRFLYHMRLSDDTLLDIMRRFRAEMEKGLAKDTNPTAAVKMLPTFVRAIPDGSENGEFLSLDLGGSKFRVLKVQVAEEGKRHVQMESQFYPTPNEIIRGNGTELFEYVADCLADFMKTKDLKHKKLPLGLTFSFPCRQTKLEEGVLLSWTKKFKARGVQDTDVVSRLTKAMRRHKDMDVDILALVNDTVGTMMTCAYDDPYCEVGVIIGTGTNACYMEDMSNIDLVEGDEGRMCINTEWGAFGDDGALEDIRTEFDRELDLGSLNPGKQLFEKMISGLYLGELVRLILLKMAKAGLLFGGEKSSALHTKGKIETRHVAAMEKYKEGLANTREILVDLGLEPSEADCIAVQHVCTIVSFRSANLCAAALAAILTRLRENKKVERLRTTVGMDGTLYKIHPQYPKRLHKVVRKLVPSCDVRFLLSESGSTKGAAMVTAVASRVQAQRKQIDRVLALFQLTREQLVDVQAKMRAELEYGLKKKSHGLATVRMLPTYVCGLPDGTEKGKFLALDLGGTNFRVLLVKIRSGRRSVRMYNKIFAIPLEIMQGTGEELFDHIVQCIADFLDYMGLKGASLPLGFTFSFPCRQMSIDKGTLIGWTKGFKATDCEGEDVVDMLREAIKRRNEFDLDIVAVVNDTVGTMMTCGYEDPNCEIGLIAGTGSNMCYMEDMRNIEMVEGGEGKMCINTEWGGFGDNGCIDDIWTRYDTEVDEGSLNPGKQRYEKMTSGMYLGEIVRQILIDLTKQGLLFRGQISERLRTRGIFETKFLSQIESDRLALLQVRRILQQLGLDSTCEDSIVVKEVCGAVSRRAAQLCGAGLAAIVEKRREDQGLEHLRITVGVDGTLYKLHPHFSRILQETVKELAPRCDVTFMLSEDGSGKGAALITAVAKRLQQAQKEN

Fatty acid synthase [12] = target: T5, Fatty acid synthase; assay: FAS thioesterase domain inhibitors, dose response, biochemical, endpoint fluorescence intensity, uHTS hits (AID 624327); assay type: functional;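 also: fluorescence from hydrolysis of an O-methyl fluorescein acyl ester substrate by the enzyme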
[13] = M. tuberculosis H37Rv growth inhibitors, H37Rv strain (AID 1626); assay type: functional

T4 sequence (P11940 whole entry): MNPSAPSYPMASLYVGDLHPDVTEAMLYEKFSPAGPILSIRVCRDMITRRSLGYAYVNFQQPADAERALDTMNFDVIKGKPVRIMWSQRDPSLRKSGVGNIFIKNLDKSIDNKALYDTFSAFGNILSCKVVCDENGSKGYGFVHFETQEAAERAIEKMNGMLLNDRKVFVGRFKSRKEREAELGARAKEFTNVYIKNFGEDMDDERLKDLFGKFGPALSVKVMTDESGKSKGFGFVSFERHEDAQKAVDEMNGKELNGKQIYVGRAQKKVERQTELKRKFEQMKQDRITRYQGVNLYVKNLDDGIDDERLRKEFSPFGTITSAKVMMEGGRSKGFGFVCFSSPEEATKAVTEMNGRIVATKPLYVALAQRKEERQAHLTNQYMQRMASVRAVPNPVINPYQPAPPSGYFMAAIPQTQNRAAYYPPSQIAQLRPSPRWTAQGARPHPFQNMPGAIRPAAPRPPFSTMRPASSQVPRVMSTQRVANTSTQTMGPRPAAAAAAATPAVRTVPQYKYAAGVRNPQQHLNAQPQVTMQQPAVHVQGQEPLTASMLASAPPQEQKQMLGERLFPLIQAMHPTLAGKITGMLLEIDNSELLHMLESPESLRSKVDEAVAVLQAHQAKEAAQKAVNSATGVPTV
T5 sequence (P49327 whole entry, the tested form may be a part): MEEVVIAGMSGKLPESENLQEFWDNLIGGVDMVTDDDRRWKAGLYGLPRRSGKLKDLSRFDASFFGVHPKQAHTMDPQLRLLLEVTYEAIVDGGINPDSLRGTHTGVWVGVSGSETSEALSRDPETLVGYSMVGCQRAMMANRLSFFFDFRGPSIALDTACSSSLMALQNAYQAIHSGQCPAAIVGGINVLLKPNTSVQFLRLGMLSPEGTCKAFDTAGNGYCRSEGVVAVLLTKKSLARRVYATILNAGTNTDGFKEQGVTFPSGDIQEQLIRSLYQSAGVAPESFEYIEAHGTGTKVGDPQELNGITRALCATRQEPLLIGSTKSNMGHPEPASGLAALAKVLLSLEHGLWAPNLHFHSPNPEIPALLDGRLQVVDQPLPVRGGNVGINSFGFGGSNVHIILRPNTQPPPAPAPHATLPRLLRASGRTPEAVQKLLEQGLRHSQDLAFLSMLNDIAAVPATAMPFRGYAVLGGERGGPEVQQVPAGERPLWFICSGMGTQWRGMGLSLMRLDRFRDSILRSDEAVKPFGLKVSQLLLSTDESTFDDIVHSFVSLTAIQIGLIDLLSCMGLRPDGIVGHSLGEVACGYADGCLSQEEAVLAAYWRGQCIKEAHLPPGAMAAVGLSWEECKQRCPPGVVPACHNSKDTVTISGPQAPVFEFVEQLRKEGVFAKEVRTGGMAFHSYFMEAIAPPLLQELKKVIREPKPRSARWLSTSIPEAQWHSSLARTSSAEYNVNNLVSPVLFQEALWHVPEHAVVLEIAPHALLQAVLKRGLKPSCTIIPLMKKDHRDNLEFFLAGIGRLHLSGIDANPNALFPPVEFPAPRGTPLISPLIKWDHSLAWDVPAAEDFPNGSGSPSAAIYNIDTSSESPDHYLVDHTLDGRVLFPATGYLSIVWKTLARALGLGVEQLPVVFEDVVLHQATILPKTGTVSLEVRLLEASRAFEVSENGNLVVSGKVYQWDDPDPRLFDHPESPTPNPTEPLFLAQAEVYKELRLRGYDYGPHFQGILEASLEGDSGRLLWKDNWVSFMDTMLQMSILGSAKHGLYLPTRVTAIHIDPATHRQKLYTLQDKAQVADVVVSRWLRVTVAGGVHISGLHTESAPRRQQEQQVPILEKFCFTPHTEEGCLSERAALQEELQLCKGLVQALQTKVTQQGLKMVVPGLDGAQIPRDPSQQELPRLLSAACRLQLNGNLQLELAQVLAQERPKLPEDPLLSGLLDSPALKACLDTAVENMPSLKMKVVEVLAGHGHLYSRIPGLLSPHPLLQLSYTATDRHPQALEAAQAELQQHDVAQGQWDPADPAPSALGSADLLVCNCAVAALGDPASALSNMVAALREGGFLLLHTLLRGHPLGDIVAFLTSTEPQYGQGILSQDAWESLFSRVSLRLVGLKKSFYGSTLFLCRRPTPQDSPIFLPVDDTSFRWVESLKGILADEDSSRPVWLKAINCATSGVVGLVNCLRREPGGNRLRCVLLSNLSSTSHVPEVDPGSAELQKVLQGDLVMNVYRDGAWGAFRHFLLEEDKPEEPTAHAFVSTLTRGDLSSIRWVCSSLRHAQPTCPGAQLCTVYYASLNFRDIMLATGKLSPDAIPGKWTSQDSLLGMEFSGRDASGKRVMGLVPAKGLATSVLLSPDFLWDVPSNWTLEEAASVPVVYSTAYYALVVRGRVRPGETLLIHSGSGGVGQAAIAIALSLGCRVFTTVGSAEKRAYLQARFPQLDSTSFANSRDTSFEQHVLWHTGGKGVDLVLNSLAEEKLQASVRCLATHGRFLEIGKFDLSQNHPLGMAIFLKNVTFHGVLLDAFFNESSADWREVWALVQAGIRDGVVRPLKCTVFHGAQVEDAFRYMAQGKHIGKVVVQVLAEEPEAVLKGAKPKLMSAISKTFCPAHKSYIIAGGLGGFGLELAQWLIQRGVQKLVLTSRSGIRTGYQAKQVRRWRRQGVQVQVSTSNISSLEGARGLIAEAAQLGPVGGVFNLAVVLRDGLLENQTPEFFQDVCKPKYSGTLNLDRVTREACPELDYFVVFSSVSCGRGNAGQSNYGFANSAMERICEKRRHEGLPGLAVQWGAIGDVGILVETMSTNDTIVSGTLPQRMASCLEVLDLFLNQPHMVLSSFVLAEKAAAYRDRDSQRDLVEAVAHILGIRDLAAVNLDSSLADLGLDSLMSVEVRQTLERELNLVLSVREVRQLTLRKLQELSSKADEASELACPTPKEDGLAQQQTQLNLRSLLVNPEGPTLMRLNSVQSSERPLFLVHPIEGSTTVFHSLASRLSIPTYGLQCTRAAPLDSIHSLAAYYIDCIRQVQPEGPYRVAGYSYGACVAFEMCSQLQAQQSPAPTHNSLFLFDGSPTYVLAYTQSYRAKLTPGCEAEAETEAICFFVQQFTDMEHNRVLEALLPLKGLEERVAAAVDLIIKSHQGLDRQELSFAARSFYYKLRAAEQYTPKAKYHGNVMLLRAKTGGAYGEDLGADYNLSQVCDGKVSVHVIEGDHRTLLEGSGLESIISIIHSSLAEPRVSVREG
Genome polyprotein, sequence (P29990 2492-3391 limits assumed): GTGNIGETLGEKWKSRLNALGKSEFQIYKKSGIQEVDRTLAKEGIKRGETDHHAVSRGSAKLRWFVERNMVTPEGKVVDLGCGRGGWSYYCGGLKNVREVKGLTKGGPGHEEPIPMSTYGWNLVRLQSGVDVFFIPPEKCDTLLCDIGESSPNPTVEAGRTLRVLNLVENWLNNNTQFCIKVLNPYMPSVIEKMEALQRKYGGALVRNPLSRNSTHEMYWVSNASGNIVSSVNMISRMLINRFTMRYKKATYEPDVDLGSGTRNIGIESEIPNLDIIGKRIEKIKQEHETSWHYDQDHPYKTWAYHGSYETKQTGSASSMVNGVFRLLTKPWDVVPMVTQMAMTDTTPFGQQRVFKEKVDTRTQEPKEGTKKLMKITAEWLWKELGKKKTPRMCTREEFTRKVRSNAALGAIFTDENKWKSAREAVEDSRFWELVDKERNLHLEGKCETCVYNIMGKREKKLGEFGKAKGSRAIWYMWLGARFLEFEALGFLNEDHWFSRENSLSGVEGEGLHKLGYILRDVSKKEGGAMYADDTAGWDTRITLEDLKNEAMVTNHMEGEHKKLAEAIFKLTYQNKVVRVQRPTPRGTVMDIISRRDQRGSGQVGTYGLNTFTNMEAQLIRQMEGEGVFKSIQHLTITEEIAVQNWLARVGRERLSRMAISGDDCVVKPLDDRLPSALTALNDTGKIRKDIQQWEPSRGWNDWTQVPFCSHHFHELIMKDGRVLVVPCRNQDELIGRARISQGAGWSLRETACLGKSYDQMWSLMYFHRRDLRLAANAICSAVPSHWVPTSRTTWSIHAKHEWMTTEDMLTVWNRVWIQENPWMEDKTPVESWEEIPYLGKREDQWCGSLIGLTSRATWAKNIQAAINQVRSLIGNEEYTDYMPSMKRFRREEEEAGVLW
Large T antigen, sequence (P03070 whole entry, the tested form may be a part): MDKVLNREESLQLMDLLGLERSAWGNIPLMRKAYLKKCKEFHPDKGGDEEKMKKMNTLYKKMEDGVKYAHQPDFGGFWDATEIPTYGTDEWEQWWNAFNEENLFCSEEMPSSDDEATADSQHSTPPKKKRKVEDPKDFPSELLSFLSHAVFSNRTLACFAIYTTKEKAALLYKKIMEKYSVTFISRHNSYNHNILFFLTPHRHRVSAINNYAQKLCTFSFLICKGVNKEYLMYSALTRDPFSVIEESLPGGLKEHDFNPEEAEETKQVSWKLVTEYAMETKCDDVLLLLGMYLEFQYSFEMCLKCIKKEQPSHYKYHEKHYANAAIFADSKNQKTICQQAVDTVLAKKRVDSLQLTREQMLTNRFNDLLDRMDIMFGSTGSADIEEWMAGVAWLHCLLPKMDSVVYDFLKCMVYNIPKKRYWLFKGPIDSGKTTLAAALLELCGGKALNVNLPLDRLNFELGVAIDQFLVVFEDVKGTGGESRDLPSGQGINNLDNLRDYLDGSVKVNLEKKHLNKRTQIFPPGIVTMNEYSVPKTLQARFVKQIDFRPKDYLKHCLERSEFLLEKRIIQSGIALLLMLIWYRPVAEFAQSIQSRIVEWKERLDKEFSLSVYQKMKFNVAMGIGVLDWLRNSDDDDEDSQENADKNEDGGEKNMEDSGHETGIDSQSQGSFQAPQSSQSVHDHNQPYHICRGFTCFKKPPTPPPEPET

Q: What does the source list for O=C1NN(c2ccccc2)C(=O)/C1=C/c1ccc(-c2ccc(Cl)c(C(=O)O)c2)o1?
A: IC50 (Large T antigen): 17.1 µM (active); IC50 [1]: 4.07 µM (active); IC50 [2]: 80.4 µM (active); IC50 (Genome polyprotein): 32.2 µM (active)

Q: Which EC50 (Ion channel NompC) does the source give for O=S(=O)(NC1CCCCCC1)c1cccc2cccnc12 here?
A: > 29.9 µM (not active)

Q: What about the EC50 (Mucolipin-3) of the same molecule?
A: 3.4 µM (active)

Q: Which results are given for COc1cc(/C=N/NC(=O)c2ccccc2)ccc1OCC(=O)Nc1ccc([N+](=O)[O-])cc1?
A: IC50 [3]: 49.5 µM (active); IC50 [4]: 2.74 µM (active)

Q: What does the source list for CCCC(=O)NC1=C(Cl)C(=O)c2ccccc2C1=O?
A: IC50 (CHO): 0.891 µM (active); IC50 (Fatty acid synthase [5]): 12.7 µM (active); IC50 [6]: > 66 µM (inactive); IC50 [7]: > 66 µM (inactive); IC50 (Beta Lactamase): 6.78 µM (active); IC50 [8]: 11.8 µM (inactive); CC50 (Vero): 27.4 µM (active); IC50 (Genome polyprotein): 14.5 µM (active); AC50 [9]: 28.3 µM (active); CC50 [10]: 3.81 µM (active); AC50 [11]: < 0.195 µM (active); AC50 (Paired box protein Pax-8): 2.54 µM (active); IC50 (Hexokinase HKDC1): 3.93 µM (active); IC50 (Fatty acid synthase [12]): 37.7 µM (inactive)

Q: Which IC50 [13] does the source give for Cc1sc(N)nc1-c1ccccc1 here?
A: > 100 µM (active)

Q: For O/N=C/c1ccc2ccccc2c1, which IC50 [13] is on record?
A: > 100 µM (active)
